Results: ChEMBL document CHEMBL1201862, “PubChem BioAssay data set” (2004)
The source made the active and inactive calls.

Tests used:
[1] = target: T1, Microphthalmia-associated transcription factor (Homo sapiens, UniProt O75030); experiment: TRPM1 promoter luciferase signal decrease, dose response, MITF inhibitor project, cell-based, SK-MEL-5, cherry-picked, set 3 (AID 493073); assay type: functional
T1 sequence (O75030 whole entry): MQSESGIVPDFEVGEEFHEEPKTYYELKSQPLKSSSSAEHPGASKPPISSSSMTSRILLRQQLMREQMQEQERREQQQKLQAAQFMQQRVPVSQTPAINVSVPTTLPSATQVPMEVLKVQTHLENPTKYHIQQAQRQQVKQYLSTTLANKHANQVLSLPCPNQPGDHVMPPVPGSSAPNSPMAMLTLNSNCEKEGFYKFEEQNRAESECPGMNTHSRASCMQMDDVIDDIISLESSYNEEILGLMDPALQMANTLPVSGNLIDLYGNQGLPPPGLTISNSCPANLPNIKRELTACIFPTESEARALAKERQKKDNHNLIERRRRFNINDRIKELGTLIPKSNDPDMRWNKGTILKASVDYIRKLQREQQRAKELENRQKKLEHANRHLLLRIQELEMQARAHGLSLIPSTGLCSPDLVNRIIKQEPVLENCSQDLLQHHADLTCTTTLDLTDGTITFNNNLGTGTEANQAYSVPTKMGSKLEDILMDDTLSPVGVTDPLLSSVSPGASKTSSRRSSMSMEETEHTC

[2] = test system: INS1; experiment: beta cell apoptosis inhibitors, cytokine rescue, dose response, luminescence, retest (AID 449756); assay type: functional, cell-based; details: Rattus norvegicus;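 also: cell death triggered by IL-1 beta plus TNF-alpha plus IFN-gamma mixture; protective hits raise ATP signal compared with cytokine alone wells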
[3] = target: T2, Corticotropin-releasing factor receptor 2/Corticotropin-releasing factor-binding protein (Homo sapiens, UniProt P24387+Q13324); experiment: Dose Response confirmation of uHTS hits for small molecule antagonists of the CRF-binding protein and CRF-R2 receptor complex.; assay type: functional; details: read-out: IC50_Mean
T2 sequence (Q13324 whole entry): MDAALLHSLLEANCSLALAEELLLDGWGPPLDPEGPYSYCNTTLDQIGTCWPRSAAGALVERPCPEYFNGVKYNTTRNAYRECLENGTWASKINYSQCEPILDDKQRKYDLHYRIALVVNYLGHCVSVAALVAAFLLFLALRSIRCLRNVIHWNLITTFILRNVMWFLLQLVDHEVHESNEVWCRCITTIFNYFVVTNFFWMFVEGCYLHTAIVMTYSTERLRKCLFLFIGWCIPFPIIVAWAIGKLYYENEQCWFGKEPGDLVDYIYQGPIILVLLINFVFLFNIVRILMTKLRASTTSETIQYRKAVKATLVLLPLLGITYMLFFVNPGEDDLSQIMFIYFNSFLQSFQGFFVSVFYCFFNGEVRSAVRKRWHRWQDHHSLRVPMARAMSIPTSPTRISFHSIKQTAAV
T2 sequence (P24387 whole entry): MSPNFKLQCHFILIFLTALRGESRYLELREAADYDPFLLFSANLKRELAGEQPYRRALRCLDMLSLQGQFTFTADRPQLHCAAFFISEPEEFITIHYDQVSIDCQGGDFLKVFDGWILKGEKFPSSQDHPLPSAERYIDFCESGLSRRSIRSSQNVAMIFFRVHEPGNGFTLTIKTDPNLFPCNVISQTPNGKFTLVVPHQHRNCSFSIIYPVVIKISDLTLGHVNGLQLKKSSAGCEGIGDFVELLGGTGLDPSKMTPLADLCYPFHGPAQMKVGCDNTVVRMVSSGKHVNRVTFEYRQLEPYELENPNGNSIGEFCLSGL

[4] = target: T2, Corticotropin-releasing factor receptor 2/Corticotropin-releasing factor-binding protein; experiment: activators of CRF receptor 2 with binding protein – uHTS hits, confirmation (AID 602473); assay type: functional; details: read-out: EC50_Mean
[5] = target: T3, Fatty acid synthase (Homo sapiens, UniProt P49327); experiment: FAS thioesterase domain inhibitors, dose response, biochemical, endpoint fluorescence intensity, uHTS hits (AID 624327); assay type: functional;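 also: fluorescence from hydrolysis of an O-methyl fluorescein acyl ester substrate by the enzyme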
T3 sequence (P49327 whole entry, the tested form may be a part): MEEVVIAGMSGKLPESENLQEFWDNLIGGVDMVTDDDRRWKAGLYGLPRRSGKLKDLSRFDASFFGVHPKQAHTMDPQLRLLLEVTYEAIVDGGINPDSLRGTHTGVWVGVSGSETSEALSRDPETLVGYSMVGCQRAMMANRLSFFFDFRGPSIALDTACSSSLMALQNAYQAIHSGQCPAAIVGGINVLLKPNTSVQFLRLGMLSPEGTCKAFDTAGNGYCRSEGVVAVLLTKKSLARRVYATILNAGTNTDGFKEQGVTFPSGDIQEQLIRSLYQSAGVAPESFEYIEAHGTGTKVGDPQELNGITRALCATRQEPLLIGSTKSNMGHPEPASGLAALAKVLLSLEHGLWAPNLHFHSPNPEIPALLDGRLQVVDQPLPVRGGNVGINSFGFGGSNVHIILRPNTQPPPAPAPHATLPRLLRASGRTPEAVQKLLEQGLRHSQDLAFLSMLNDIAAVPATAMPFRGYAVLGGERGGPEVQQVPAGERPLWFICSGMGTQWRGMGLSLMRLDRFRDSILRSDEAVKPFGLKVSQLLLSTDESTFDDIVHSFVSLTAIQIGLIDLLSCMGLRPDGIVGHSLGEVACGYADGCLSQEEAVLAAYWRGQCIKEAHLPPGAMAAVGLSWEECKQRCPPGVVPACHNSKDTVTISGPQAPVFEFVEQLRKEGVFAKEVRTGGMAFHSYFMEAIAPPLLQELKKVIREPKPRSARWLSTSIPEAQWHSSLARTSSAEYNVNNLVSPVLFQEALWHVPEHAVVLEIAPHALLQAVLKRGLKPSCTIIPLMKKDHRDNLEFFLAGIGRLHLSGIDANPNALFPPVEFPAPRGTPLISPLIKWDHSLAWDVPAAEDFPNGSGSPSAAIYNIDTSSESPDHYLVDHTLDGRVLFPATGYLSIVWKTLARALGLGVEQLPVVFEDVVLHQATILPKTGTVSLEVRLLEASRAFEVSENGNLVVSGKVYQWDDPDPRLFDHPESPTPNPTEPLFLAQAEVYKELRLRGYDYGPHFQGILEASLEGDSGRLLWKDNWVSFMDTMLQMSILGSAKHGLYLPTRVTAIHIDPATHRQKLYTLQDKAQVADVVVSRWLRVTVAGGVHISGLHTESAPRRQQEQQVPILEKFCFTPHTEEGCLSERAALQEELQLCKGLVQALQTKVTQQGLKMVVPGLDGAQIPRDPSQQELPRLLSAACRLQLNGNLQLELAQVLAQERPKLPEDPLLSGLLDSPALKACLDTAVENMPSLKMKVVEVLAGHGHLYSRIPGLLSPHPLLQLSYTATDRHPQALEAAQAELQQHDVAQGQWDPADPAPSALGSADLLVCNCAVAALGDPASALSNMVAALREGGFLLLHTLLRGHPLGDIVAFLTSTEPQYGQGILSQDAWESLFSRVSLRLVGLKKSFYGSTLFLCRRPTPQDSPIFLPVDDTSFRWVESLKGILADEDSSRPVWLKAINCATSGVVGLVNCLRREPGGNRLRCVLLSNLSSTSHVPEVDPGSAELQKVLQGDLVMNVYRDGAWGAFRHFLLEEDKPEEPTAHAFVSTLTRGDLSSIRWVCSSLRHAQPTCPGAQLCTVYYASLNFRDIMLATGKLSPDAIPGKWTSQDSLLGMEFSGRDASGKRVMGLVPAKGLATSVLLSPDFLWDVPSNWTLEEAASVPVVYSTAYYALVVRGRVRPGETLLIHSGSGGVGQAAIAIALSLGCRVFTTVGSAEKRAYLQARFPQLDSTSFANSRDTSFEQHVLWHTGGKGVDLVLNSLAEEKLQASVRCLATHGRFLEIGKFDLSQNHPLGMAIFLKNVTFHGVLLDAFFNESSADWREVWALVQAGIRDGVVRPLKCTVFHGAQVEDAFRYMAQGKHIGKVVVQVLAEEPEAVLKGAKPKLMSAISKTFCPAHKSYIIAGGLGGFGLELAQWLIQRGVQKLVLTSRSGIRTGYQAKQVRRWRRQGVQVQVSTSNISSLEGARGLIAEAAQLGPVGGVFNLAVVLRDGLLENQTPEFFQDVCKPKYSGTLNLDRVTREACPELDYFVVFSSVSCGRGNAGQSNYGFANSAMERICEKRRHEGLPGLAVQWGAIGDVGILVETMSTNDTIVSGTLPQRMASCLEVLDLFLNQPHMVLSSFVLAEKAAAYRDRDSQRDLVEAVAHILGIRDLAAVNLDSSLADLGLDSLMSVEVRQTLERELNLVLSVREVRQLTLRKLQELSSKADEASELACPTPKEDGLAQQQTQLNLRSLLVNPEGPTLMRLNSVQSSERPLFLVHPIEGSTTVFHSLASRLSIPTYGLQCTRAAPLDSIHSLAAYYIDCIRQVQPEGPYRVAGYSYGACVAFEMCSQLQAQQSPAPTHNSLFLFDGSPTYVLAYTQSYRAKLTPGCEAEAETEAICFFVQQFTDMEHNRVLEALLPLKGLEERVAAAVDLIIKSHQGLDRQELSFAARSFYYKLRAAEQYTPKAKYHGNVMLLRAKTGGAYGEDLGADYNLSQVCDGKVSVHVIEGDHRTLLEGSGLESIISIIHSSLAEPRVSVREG

[6] = target: T3, Fatty acid synthase; experiment: FAS thioesterase domain inhibitors, dose response, biochemical, kinetic fluorescence intensity (AID 624326); assay type: functional;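 also: rate of fluorescence rise from hydrolysis of a fluorogenic O-methyl fluorescein ester substrate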
[7] = HEp-2 cell cytotoxicity, dose response, cytotoxicity control for RSV inhibitor project, HTS (AID 2410); assay type: functional; details: human respiratory syncytial virus
[8] = target: Glucose-6-phosphate 1-dehydrogenase (Homo sapiens, UniProt P11413); experiment: human G6PD enzyme inhibitors, dose response, selectivity assay for P. falciparum G6PD inhibitor project, biochemical, fluorescence (AID 504792); assay type: functional
Sequence of Glucose-6-phosphate 1-dehydrogenase (P11413 whole entry): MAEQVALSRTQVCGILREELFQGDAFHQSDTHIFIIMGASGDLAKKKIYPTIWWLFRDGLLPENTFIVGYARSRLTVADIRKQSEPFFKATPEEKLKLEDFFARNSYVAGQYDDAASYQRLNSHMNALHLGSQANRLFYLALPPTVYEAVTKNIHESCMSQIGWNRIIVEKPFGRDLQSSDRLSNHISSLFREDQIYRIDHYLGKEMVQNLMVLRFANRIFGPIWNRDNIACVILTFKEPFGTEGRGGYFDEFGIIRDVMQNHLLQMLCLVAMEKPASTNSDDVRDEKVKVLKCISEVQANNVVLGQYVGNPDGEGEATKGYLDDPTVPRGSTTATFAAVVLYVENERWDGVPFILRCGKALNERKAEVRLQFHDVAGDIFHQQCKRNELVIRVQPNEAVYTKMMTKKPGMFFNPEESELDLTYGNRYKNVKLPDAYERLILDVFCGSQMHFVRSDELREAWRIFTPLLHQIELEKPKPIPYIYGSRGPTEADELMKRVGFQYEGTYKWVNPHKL

[9] = target: DNA dC->dU-editing enzyme APOBEC-3G (Homo sapiens, UniProt Q9HC16); experiment: Dose Response confirmation of small molecule APOBEC3G DNA Deaminase Inhibitors via a fluorescence-based single-stranded DNA deaminase assay. [Related pubchem assays (depositor defined):AID493012, AID493028]; assay type: functional
Sequence of DNA dC->dU-editing enzyme APOBEC-3G (Q9HC16 whole entry): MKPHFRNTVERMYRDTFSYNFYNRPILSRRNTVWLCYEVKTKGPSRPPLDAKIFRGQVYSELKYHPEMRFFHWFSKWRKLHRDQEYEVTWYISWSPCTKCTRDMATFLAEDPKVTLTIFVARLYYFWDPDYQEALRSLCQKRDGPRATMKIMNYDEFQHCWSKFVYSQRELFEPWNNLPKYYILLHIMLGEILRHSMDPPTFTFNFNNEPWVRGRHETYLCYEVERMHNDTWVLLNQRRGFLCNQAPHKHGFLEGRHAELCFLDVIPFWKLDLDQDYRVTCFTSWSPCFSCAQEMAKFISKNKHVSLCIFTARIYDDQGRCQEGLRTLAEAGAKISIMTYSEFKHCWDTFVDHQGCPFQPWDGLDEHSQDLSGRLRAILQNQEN

[10] = cells; assay type: functional

Row | Structure (SMILES) | IC50 [5] | IC50 [6] | IC50 [8] | further results
1 | COc1ccc(Cn2c(-c3ccc(C)cc3)c[n+]3ccccc23)cc1 |  |  |  | AC50 [1]: 2.89 µM (active); AC50 [2]: 4.52 µM (active)
2 | C/C=C/C=C/C(=O)OC(C)C(=O)Nc1cc([N+](=O)[O-])ccc1OC (stereo not drawn) | 4.02 µM (active) | 4.79 µM (active) |  | IC50 [3]: > 47.1 µM (inactive); EC50 [4]: > 53 µM (inactive)
3 | CCOc1ccccc1N(CC)C(=O)c1ccc2c(=O)n3c(nc2c1)CCCCC3 | 3.88 µM (active) | 3.45 µM (active) |  | 
4 | C=CCSC(=S)NC1CCS(=O)(=O)C1 (stereo not drawn) |  |  |  | CC50 [7]: 24.6 µM (active); AC50 [1]: 20.7 µM (active)
5 | COC(=O)CCC(=O)Nc1sc(Cc2ccccc2)c(C)c1C(N)=O |  |  | > 80 µM (inactive) | IC50 [9]: 31.1 µM (active); IC50 [10]: 49 µM (active)
6 | COC(=O)[C@H](C)NC(=O)c1cc2c3ccccc3nc-2c[nH]1 |  |  | > 80 µM (inactive) | IC50 [9]: 25.6 µM (active)
7 | Cc1ccc(-c2c(C(=O)N(C)Cc3ccccc3)oc(=O)c3ccccc23)cc1 | 11.6 µM (active) | 12.3 µM (active) |  | 
8 | CC(C)c1nnc(NC(=O)c2cc3ccccc3o2)s1 |  |  | > 80 µM (inactive) | 
